Measured values taken from ChEMBL document CHEMBL1649524, “Resistance selection studies comparing the activity of razupenem (PTZ601) to vancomycin and linezolid against eight methicillin-resistant and two methicillin-susceptible Staphylococcus aureus strains” (2009).
Converted amounts (≈) assume the structure as drawn.

How the values were obtained:
Assay type in all cases: functional
Staphylococcus aureus [1] = experiment: Antimicrobial activity against methicillin-resistant Staphylococcus aureus 525 measured on day 20 by macrodilution method; details: Staphylococcus aureus, 525, 480 h
Staphylococcus aureus [2] = experiment: Antimicrobial activity against heterogeneous vancomycin-intermediate Staphylococcus aureus 168 measured on day 15 by macrodilution method; details: Staphylococcus aureus, 168, 360 h
Staphylococcus aureus [3] = experiment: Antimicrobial activity against vancomycin-resistant Staphylococcus aureus 509 measured on day 35 by macrodilution method
Staphylococcus aureus [4] = experiment: Antimicrobial activity against heterogeneous vancomycin-intermediate Staphylococcus aureus 873 by macrodilution method
Staphylococcus aureus [5] = experiment: Antimicrobial activity against heterogeneous vancomycin-intermediate Staphylococcus aureus 873 measured after 10 antibiotic-free subculturing by macrodilution method
Staphylococcus aureus [6] = experiment: Antimicrobial activity against vancomycin-intermediate Staphylococcus aureus 1287 measured on day 50 by macrodilution method
Staphylococcus aureus [7] = experiment: Antimicrobial activity against heterogeneous vancomycin-intermediate Staphylococcus aureus 168 measured on day 35 by macrodilution method
Staphylococcus aureus [8] = experiment: Antimicrobial activity against vancomycin-resistant Staphylococcus aureus 509 measured on day 10 by macrodilution method; details: Staphylococcus aureus, 509, 240 h
Staphylococcus aureus [9] = experiment: Antimicrobial activity against vancomycin-intermediate Staphylococcus aureus 555 measured on day 45 by macrodilution method
Staphylococcus aureus [10] = experiment: Antimicrobial activity against methicillin-resistant Staphylococcus aureus 525 measured on day 15 by macrodilution method; details: Staphylococcus aureus, 525, 360 h
Staphylococcus aureus [11] = experiment: Antimicrobial activity against vancomycin-intermediate Staphylococcus aureus 555 measured on day 15 by macrodilution method; details: Staphylococcus aureus, 555, 360 h
Staphylococcus aureus [12] = experiment: Antimicrobial activity against vancomycin-resistant Staphylococcus aureus 510 measured on day 50 by macrodilution method
Staphylococcus aureus [13] = experiment: Antimicrobial activity against vancomycin-intermediate Staphylococcus aureus 555 measured on day 30 by macrodilution method
Staphylococcus aureus [14] = experiment: Antimicrobial activity against vancomycin-resistant Staphylococcus aureus 510 measured on day 45 by macrodilution method
Staphylococcus aureus [15] = experiment: Antimicrobial activity against methicillin-resistant Staphylococcus aureus 547 measured on day 35 by macrodilution method
Staphylococcus aureus [16] = experiment: Antimicrobial activity against heterogeneous vancomycin-intermediate Staphylococcus aureus 168 after 50 passages by macrodilution method
Staphylococcus aureus [17] = experiment: Antimicrobial activity against methicillin-susceptible Staphylococcus aureus 540 measured on day 40 by macrodilution method
Staphylococcus aureus [18] = experiment: Antimicrobial activity against vancomycin-resistant Staphylococcus aureus 510 by macrodilution method
Staphylococcus aureus [19] = experiment: Antimicrobial activity against methicillin-susceptible Staphylococcus aureus 540 measured on day 45 by macrodilution method
Staphylococcus aureus [20] = experiment: Antimicrobial activity against vancomycin-resistant Staphylococcus aureus 510 measured on day 15 by macrodilution method; details: Staphylococcus aureus, 510, 360 h
Staphylococcus aureus [21] = experiment: Antimicrobial activity against vancomycin-intermediate Staphylococcus aureus 555 measured on day 25 by macrodilution method; details: Staphylococcus aureus, 555, 600 h
Staphylococcus aureus [22] = experiment: Antimicrobial activity against heterogeneous vancomycin-intermediate Staphylococcus aureus 168 measured on day 45 by macrodilution method
Staphylococcus aureus [23] = experiment: Antimicrobial activity against vancomycin-resistant Staphylococcus aureus 509 by macrodilution method
Staphylococcus aureus [24] = experiment: Antimicrobial activity against methicillin-susceptible Staphylococcus aureus 543 measured on day 50 by macrodilution method
Staphylococcus aureus [25] = experiment: Antimicrobial activity against vancomycin-resistant Staphylococcus aureus 510 measured on day 10 by macrodilution method; details: Staphylococcus aureus, 510, 240 h
Staphylococcus aureus [26] = experiment: Antimicrobial activity against methicillin-susceptible Staphylococcus aureus 543 measured on day 10 by macrodilution method; details: Staphylococcus aureus, 543, 240 h
Staphylococcus aureus [27] = experiment: Antimicrobial activity against vancomycin-intermediate Staphylococcus aureus 1287 measured on day 40 by macrodilution method
Staphylococcus aureus [28] = experiment: Antimicrobial activity against methicillin-susceptible Staphylococcus aureus 543 measured after 10 antibiotic-free subculturing by macrodilution method
Staphylococcus aureus [29] = experiment: Antimicrobial activity against methicillin-susceptible Staphylococcus aureus 543 measured on day 25 by macrodilution method; details: Staphylococcus aureus, 543, 600 h
Staphylococcus aureus [30] = experiment: Antimicrobial activity against vancomycin-intermediate Staphylococcus aureus 555 measured on day 40 by macrodilution method
Staphylococcus aureus [31] = experiment: Antimicrobial activity against heterogeneous vancomycin-intermediate Staphylococcus aureus 168 measured on day 20 by macrodilution method; details: Staphylococcus aureus, 168, 480 h
Staphylococcus aureus [32] = experiment: Antimicrobial activity against methicillin-susceptible Staphylococcus aureus 543 measured on day 40 by macrodilution method
Staphylococcus aureus [33] = experiment: Antimicrobial activity against methicillin-susceptible Staphylococcus aureus 540 measured on day 35 by macrodilution method
Staphylococcus aureus [34] = experiment: Antimicrobial activity against vancomycin-intermediate Staphylococcus aureus 555 by macrodilution method
Staphylococcus aureus [35] = experiment: Antimicrobial activity against vancomycin-intermediate Staphylococcus aureus 1287 measured after 10 antibiotic-free subculturing by macrodilution method
Staphylococcus aureus [36] = experiment: Antimicrobial activity against methicillin-resistant Staphylococcus aureus 547 measured on day 40 by macrodilution method
Staphylococcus aureus [37] = experiment: Antimicrobial activity against vancomycin-intermediate Staphylococcus aureus 555 measured after 10 antibiotic-free subculturing by macrodilution method
Staphylococcus aureus [38] = experiment: Antimicrobial activity against methicillin-susceptible Staphylococcus aureus 543 measured on day 15 by macrodilution method; details: Staphylococcus aureus, 543, 360 h
Staphylococcus aureus [39] = experiment: Antimicrobial activity against methicillin-resistant Staphylococcus aureus 525 measured on day 40 by macrodilution method
Staphylococcus aureus [40] = experiment: Antimicrobial activity against heterogeneous vancomycin-intermediate Staphylococcus aureus 168 measured on day 50 by macrodilution method
Staphylococcus aureus [41] = experiment: Antimicrobial activity against methicillin-resistant Staphylococcus aureus 525 by macrodilution method
Staphylococcus aureus [42] = experiment: Antimicrobial activity against vancomycin-resistant Staphylococcus aureus 510 measured on day 30 by macrodilution method
Staphylococcus aureus [43] = experiment: Antimicrobial activity against vancomycin-intermediate Staphylococcus aureus 1287 measured on day 25 by macrodilution method; details: Staphylococcus aureus, 1287, 600 h
Staphylococcus aureus [44] = experiment: Antimicrobial activity against vancomycin-intermediate Staphylococcus aureus 1287 measured on day 15 by macrodilution method; details: Staphylococcus aureus, 1287, 360 h
Staphylococcus aureus [45] = experiment: Antimicrobial activity against methicillin-susceptible Staphylococcus aureus 540 measured after 10 antibiotic-free subculturing by macrodilution method
Staphylococcus aureus [46] = experiment: Antimicrobial activity against vancomycin-resistant Staphylococcus aureus 509 measured on day 25 by macrodilution method; details: Staphylococcus aureus, 509, 600 h
Staphylococcus aureus [47] = experiment: Antimicrobial activity against heterogeneous vancomycin-intermediate Staphylococcus aureus 873 measured on day 30 by macrodilution method
Staphylococcus aureus [48] = experiment: Antimicrobial activity against methicillin-resistant Staphylococcus aureus 525 measured on day 50 by macrodilution method
Staphylococcus aureus [49] = experiment: Antimicrobial activity against vancomycin-resistant Staphylococcus aureus 509 measured on day 5 by macrodilution method; details: Staphylococcus aureus, 509, 120 h
Staphylococcus aureus [50] = experiment: Antimicrobial activity against methicillin-resistant Staphylococcus aureus 525 measured on day 5 by macrodilution method; details: Staphylococcus aureus, 525, 120 h
Staphylococcus aureus [51] = experiment: Antimicrobial activity against methicillin-resistant Staphylococcus aureus 547 measured on day 45 by macrodilution method
Staphylococcus aureus [52] = experiment: Antimicrobial activity against methicillin-resistant Staphylococcus aureus 547 by macrodilution method

C[C@H]1C=C(c2csc(SC3=C(C(=O)O)N4C(=O)[C@H]([C@@H](C)O)[C@H]4[C@H]3C)n2)CN1 [RAZUPENEM]
MIC (Staphylococcus aureus [1]): 4 mg/L (≈ 9.82 µM) | MIC (Staphylococcus aureus [2]): 8 mg/L (≈ 19.6 µM) | MIC (Staphylococcus aureus [3]): 4 mg/L (≈ 9.82 µM) | MIC (Staphylococcus aureus [4]): 2 mg/L (≈ 4.91 µM) | MIC (Staphylococcus aureus [5]): 8 mg/L (≈ 19.6 µM) | MIC (Staphylococcus aureus [6]): 4 mg/L (≈ 9.82 µM) | MIC (Staphylococcus aureus [7]): 8 mg/L (≈ 19.6 µM) | MIC (Staphylococcus aureus [8]): 2 mg/L (≈ 4.91 µM) | MIC (Staphylococcus aureus [9]): 8 mg/L (≈ 19.6 µM) | MIC (Staphylococcus aureus [10]): 4 mg/L (≈ 9.82 µM) | MIC (Staphylococcus aureus [11]): 2 mg/L (≈ 4.91 µM) | MIC (Staphylococcus aureus [12]): 4 mg/L (≈ 9.82 µM) | MIC (Staphylococcus aureus [13]): 8 mg/L (≈ 19.6 µM) | MIC (Staphylococcus aureus [14]): 8 mg/L (≈ 19.6 µM) | MIC (Staphylococcus aureus [15]): 16 mg/L (≈ 39.3 µM) | MIC (Staphylococcus aureus [16]): 8 mg/L (≈ 19.6 µM) | MIC (Staphylococcus aureus [17]): 0.06 mg/L (≈ 0.147 µM) | MIC (Staphylococcus aureus [18]): 1 mg/L (≈ 2.45 µM) | MIC (Staphylococcus aureus [19]): 0.06 mg/L (≈ 0.147 µM) | MIC (Staphylococcus aureus [20]): 2 mg/L (≈ 4.91 µM) | MIC (Staphylococcus aureus [21]): 2 mg/L (≈ 4.91 µM) | MIC (Staphylococcus aureus [22]): 8 mg/L (≈ 19.6 µM) | MIC (Staphylococcus aureus [23]): 2 mg/L (≈ 4.91 µM) | MIC (Staphylococcus aureus [24]): 0.06 mg/L (≈ 0.147 µM) | MIC (Staphylococcus aureus [25]): 2 mg/L (≈ 4.91 µM) | MIC (Staphylococcus aureus [26]): 0.03 mg/L (≈ 0.0736 µM) | MIC (Staphylococcus aureus [27]): 2 mg/L (≈ 4.91 µM) | MIC (Staphylococcus aureus [28]): 0.016 mg/L (≈ 0.0393 µM) | MIC (Staphylococcus aureus [29]): 0.03 mg/L (≈ 0.0736 µM) | MIC (Staphylococcus aureus [30]): 4 mg/L (≈ 9.82 µM) | MIC (Staphylococcus aureus [31]): 8 mg/L (≈ 19.6 µM) | MIC (Staphylococcus aureus [32]): 0.06 mg/L (≈ 0.147 µM) | MIC (Staphylococcus aureus [33]): 0.06 mg/L (≈ 0.147 µM) | MIC (Staphylococcus aureus [34]): 0.5 mg/L (≈ 1.23 µM) | MIC (Staphylococcus aureus [35]): 0.25 mg/L (≈ 0.613 µM) | MIC (Staphylococcus aureus [36]): 16 mg/L (≈ 39.3 µM) | MIC (Staphylococcus aureus [37]): 2 mg/L (≈ 4.91 µM) | MIC (Staphylococcus aureus [38]): 0.03 mg/L (≈ 0.0736 µM) | MIC (Staphylococcus aureus [39]): 16 mg/L (≈ 39.3 µM) | MIC (Staphylococcus aureus [40]): 8 mg/L (≈ 19.6 µM) | MIC (Staphylococcus aureus [41]): 1 mg/L (≈ 2.45 µM) | MIC (Staphylococcus aureus [42]): 4 mg/L (≈ 9.82 µM) | MIC (Staphylococcus aureus [43]): 0.5 mg/L (≈ 1.23 µM) | MIC (Staphylococcus aureus [44]): 0.25 mg/L (≈ 0.613 µM) | MIC (Staphylococcus aureus [45]): 0.016 mg/L (≈ 0.0393 µM) | MIC (Staphylococcus aureus [46]): 4 mg/L (≈ 9.82 µM) | MIC (Staphylococcus aureus [47]): 8 mg/L (≈ 19.6 µM) | MIC (Staphylococcus aureus [48]): 32 mg/L (≈ 78.5 µM) | MIC (Staphylococcus aureus [49]): 2 mg/L (≈ 4.91 µM) | MIC (Staphylococcus aureus [50]): 2 mg/L (≈ 4.91 µM) | MIC (Staphylococcus aureus [51]): 16 mg/L (≈ 39.3 µM) | MIC (Staphylococcus aureus [52]): 0.5 mg/L (≈ 1.23 µM)
